In publication PMC4170737 (Bioorganic & medicinal chemistry letters, 2014):

Legend:
[1] = molecular target: T1, human PMM2 (Homo sapiens, UniProt O15305)
T1 sequence (O15305 1-246): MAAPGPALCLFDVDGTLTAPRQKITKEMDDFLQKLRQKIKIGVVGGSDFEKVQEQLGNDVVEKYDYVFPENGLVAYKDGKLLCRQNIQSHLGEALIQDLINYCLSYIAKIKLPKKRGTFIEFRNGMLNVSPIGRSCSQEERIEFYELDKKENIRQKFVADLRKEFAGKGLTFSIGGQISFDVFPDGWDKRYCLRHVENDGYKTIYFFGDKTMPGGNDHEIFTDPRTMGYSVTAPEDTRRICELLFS

[2] = molecular target: T2, human PMI (phosphomannose isomerase) (Homo sapiens, UniProt P34949)
T2 sequence (P34949 1-423): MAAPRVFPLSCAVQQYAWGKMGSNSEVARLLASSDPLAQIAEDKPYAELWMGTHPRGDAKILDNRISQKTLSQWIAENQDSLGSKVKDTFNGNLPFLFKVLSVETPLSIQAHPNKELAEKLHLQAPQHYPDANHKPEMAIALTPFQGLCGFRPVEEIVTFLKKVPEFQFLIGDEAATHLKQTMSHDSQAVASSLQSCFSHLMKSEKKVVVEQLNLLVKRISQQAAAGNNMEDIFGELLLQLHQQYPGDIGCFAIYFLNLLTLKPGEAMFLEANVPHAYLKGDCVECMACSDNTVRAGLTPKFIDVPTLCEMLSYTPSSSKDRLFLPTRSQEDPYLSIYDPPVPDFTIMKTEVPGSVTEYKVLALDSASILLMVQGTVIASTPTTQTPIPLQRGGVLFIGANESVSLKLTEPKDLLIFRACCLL

[3] = Plasma protein binding, mouse
[4] = Hepatic microsome stability, mouse; conditions: for Hepatic Microsome Stability: mouse (first or only value of cell)
[5] = Plasma protein binding, human
[6] = Plasma stability, human
[7] = Hepatic microsome stability, human; conditions: for Hepatic Microsome Stability: human (first or only value of cell)
[8] = Plasma stability, mouse
[9] = PAMPA permeability
[10] = molecular target: T1, human PMM2; assay: biochemical
[11] = system: mevalonate pathway in streptococcus pneumonia; conditions: ref PubChem AID1028; cited from earlier work
[12] = molecular target: T3, TNAP (Homo sapiens, UniProt P05186)
T3 sequence (P05186 18-502 limits assumed): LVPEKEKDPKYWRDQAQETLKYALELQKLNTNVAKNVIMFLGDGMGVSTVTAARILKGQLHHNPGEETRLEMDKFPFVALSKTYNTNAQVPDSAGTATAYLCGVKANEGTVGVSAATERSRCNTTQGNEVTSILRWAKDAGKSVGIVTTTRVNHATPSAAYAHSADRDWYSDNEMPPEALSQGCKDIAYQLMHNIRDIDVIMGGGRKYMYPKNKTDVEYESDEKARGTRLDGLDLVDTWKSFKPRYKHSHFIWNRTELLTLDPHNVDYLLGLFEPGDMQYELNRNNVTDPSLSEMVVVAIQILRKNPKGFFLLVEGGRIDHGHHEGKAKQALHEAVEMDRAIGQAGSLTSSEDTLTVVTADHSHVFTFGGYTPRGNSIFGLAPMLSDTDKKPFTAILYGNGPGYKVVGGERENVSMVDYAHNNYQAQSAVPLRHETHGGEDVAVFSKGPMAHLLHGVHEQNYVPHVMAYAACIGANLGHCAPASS

[13] = 1× PBS, pH 7.4 alone, human column (second value of cell)
[14] = human plasma: 1× PBS, pH 7.4, 1:1 (first value of cell)
[15] = 1× PBS, pH 7.4 alone, mouse column (second value of cell)
[16] = mouse plasma: 1× PBS, pH 7.4, 1:1 (first value of cell)

Structure (SMILES) | Activity at PMM2 (in words) [1] | Activity at PMI (in words) [2] | Plasma Protein Binding ([3]; 1 μM) [% Bound] | Plasma Protein Binding ([3]; 10 μM) [% Bound] | Hepatic Microsome Stability [4] [% Remaining at 1hr] | Plasma Protein Binding ([5]; 10 μM) | Plasma Stability [6, 13] [% Remaining at 3hrs] | Plasma Stability [6, 14] [% Remaining at 3hrs] | Hepatic Microsome Stability [7] [% Remaining at 1hr] | Plasma Stability [8, 15] [% Remaining at 3hrs] | Plasma Stability [8, 16] [% Remaining at 3hrs] | Hepatic Microsome Stability (NADPH minus) ([4]; mouse, NADPH minus (second value of cell)) [% Remaining at 1hr] | Papp ([9]; PAMPA Permeability, donor pH 5.0, acceptor pH 7.4) [×10⁻⁶ cm/s] | Papp ([9]; PAMPA Permeability, donor pH 6.2, acceptor pH 7.4) [×10⁻⁶ cm/s] | Papp ([9]; pH 7.4, PAMPA Permeability, donor pH 7.4, acceptor pH 7.4) [×10⁻⁶ cm/s] | Plasma Protein Binding ([5]; 1 μM) [% Bound] | Hepatic Microsome Stability (NADPH minus) ([7]; human, NADPH minus (second value of cell)) [% Remaining at 1hr] | IC50 [10] [µM] | Activity in screen for inhibitors of the mevalonate pathway (in words) [11] | Inhibitory activity against TNAP (in words) [12]
O=c1c2ccccc2sn1-c1ccc(F)c(Cl)c1 [Compound 2m] | inactive | inactive |  |  |  |  |  |  |  |  |  |  |  |  |  |  |  |  |  | 
O=C(O)c1cccc(-n2sc3ccccc3c2=O)c1 [Compound 2n] | no activity |  | 18.8 | 30.1 | 100 | n.d. / 59.4 % Bound | 55.5 | 50.2 | 100 | 71.2 | 100 |  |  |  |  |  |  |  |  | 
COC(=O)c1cccc(-n2sc3ccccc3c2=O)c1 [Compound 2o] |  |  | 48.0 | 37.6 | 45.9 | 57.3 % Bound | 49.3 | 15.4 | 72.4 | 55.2 | 59.6 | 44.6 | 1290 | 1230 | 1300 | 41.2 | 31.5 |  |  | 
CCOC(=O)c1ccc(-n2sc3ccccc3c2=O)cc1 [Compound 2p] | essentially devoid of activity | essentially devoid of activity |  |  |  |  |  |  |  |  |  |  |  |  |  |  |  |  |  | 
CN(C)C(=O)c1cccc(-n2sc3ccccc3c2=O)c1 [Compound 2q] | no activity | no activity | 48.0 | 46.7 | 56.6 |  | 60.0 | 18.9 | 45.7 | 56.9 | 76.2 |  |  |  |  | 41.3 |  | > 50 | weak activity | devoid of any significant inhibitory activity
CN(C)S(=O)(=O)c1cccc(-n2sc3ccccc3c2=O)c1 [Compound 2s] |  |  | 35.6 | 34.1 | 100 | n.d. / 56.5 % Bound | 32.3 | 11.4 | 72.4 | 40.0 | 65.3 |  |  |  |  |  |  |  |  | 
CCN(CC)S(=O)(=O)c1cccc(-n2sc3ccccc3c2=O)c1 [Compound 2t] | devoid of activity | devoid of activity |  |  |  |  |  |  |  |  |  |  |  |  |  |  |  |  |  | 
